The values that follow come from PubChem BioAssay AID624405 (Broad Institute, 2012).

Results filed as inconclusive are left out.

In this assay the test system is C2C12 myotubes + simvastatin, ATP luminescence, 48 h. The experiment in a line: suppressors of statin myotoxicity in myotubes, dose response, cell-based, C2C12 myotubes, ATP luminescence, cherry pick (AID 624405).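 Note: myotubes are challenged with simvastatin at 10 µM to lower ATP.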
For `CCC(=O)/C=C1/Sc2ccccc2N1CC`, the AC40 is 7.21 µM.

With `COc1ccc(C#Cc2cnc3c(c2)C(=O)N([C@H](C)CO)C[C@H](C)[C@@H](CN(C)C(=O)Nc2cccc(OC)c2)O3)cc1`, the AC40 was 1.38 µM.

With `C/C=C/Cn1c(SCc2ccccc2)nc2c1c(=O)[nH]c(=O)n2C`, the AC40 is 0.556 µM.

As for `C[C@H](CO)N1C[C@H](C)[C@@H](CN(C)Cc2ccc(C(F)(F)F)cc2)Oc2ccc(NC(=O)CCCCCC(=O)Nc3ccccc3N)cc2CC1=O`, the AC40 was 8.51 µM.

In the case of `C[C@H](CO)N1C[C@H](C)[C@@H](CN(C)Cc2ccc(Cl)c(Cl)c2)Oc2ccc(NC(=O)C3CCCCC3)cc2CC1=O`, the AC40 is 17.4 µM.

Take `Cc1c(NC(=O)CSc2ccccn2)c(=O)n(-c2ccccc2)n1C`: the AC40 is 10.7 µM.

On to `O=S(=O)(c1ccccc1)c1nc(-c2ccco2)oc1N1CCCCCC1`, for which the AC40 was 6.08 µM.

For the compound `Cc1noc(C)c1S(=O)(=O)Nc1ccc2c(c1)CC(=O)N([C@H](C)CO)C[C@@H](C)[C@H](CN(C)Cc1ccc(-c3ccccc3)cc1)O2`, the AC40 is 20.3 µM.

Consider `C[C@H](CO)N1C[C@H](C)[C@@H](CN(C)Cc2ccc(C(F)(F)F)cc2)Oc2ccc(NS(=O)(=O)c3ccc(F)cc3)cc2CC1=O`, for which the AC40 is 18.2 µM.

Consider `CC1CCN(S(=O)(=O)c2ccc(NC(=O)C3CCN(C(=O)c4ccco4)CC3)cc2)CC1`, for which the AC40 is 6.94 µM.

For the compound `Cc1noc(C)c1S(=O)(=O)Nc1ccc2c(c1)CC(=O)N([C@H](C)CO)C[C@H](C)[C@@H](CN(C)Cc1ccc(C(F)(F)F)cc1)O2`, the AC40 is 4.59 µM.

In the case of `CCSC1(SCC)N=C(N)C2(C#N)C(c3ccc(F)cc3)C12C#N` (configuration not stated), the AC40 was 6.36 µM.

Take `C[C@H]1CN([C@@H](C)CO)C(=O)Cc2cc(NC(=O)CCCCCC(=O)Nc3ccccc3N)ccc2O[C@H]1CN(C)Cc1ccc(Oc2ccccc2)cc1`: the AC40 is 3.86 µM.

For `C[C@@H]1CN([C@H](C)CO)C(=O)Cc2cc(NS(=O)(=O)c3cn(C)cn3)ccc2O[C@@H]1CN(C)Cc1ccc(Cl)c(Cl)c1`, the AC40 is 2.69 µM.

As to `C[C@H]1CN([C@@H](C)CO)C(=O)Cc2cc(NC(=O)CCCCCC(=O)Nc3ccccc3N)ccc2O[C@H]1CN(C)Cc1ccc(-c2ccccc2)cc1`, the AC40 is 7.68 µM.

As for `CCOc1[nH]n(-c2ccccc2)c(=O)c1C=Nc1ccc(Cl)cc1`, the AC40 is 11.9 µM.

As to `Cc1noc2ncnc(Sc3ccc(Cl)cc3)c12`, the AC40 is 3.11 µM.

Take `Oc1ccc(-c2csc(Nc3ccc4c(c3)OCO4)n2)c(O)c1`: the AC40 is 10.5 µM.

Consider `C[C@H]1CN([C@@H](C)CO)C(=O)Cc2cc(NC(=O)Nc3cccc4ccccc34)ccc2O[C@H]1CN(C)Cc1ccc(C(=O)Nc2ccccc2N)cc1`, for which the AC40 was 2.05 µM.

In the case of `Cc1cc(C)c(C)c(S(=O)(=O)NCC(=O)N2CCCC2)c1C`, the AC40 was 13.2 µM.

As for `Cc1ccc(C(C(=O)NC2CCCC2)N(C(=O)Cc2cccs2)c2ccc3c(c2)OCCO3)cc1` (configuration not stated), the AC40 is 19 µM.

`CCS(=O)(=O)c1ncc(Cl)c(C(=O)Nc2ccc(C)cc2)n1`: the AC40 was 2.8 µM.

Consider `C[C@H](CO)N1C[C@H](C)[C@H](CN(C)Cc2ccc3c(c2)OCO3)Oc2ccc(NC(=O)CCCCCC(=O)Nc3ccccc3N)cc2CC1=O`, for which the AC40 was 14.9 µM.

Regarding `CC(C)(C)NC(=O)CN(C(=O)Cn1nnc(-c2ccccc2F)n1)c1cccc2c1CCCC2`, the AC40 was 19.4 µM.

Take `O=C(CCNS(=O)(=O)c1ccc(Br)cc1)NCc1ccc2c(c1)OCO2`: the AC40 was 14.8 µM.

As for `COc1ccc(S(=O)(=O)Nc2ccc3c(c2)C(=O)N([C@@H](C)CO)C[C@H](C)[C@H](CN(C)S(=O)(=O)c2ccc(F)cc2)OCCCC[C@@H](C)O3)cc1`, the AC40 is 17.7 µM.

For the compound `C[C@@H]1CN([C@H](C)CO)C(=O)c2cccc(NC(=O)Nc3ccc4c(c3)OCO4)c2O[C@H]1CN(C)Cc1ccc(C(=O)Nc2ccccc2N)cc1`, the AC40 is 0.893 µM.

As for `CCCC(c1nnnn1Cc1ccc(OC)cc1)N1CCN(c2ccccc2)CC1` (configuration not stated), the AC40 was 5.18 µM.

With `COc1ccc(C(=O)Nc2ccccc2N2CCOCC2)cc1Br`, the AC40 is 12.1 µM.

With `CC(=O)Nc1nc2n(n1)C(c1ccc(F)cc1)C=C(c1ccccc1)N2` (configuration not stated), the AC40 was 1.77 µM.

On to `CC(=O)c1c(C(C)=O)c(C)n(Cc2ccc(Cl)cc2)c1C`, for which the AC40 was 16.9 µM.

Regarding `O=C(CN1CCN(c2nc(-c3ccccc3)cs2)CC1)NCc1ccc2c(c1)OCO2`, the AC40 is 10 µM.

As to `CCC(C(=O)NC1CCCC1)N(C(=O)Cn1nnc(-c2ccc(OC)c(OC)c2)n1)c1cccc(O)c1` (configuration not stated), the AC40 is 8.39 µM.

With `COc1ccc(S(=O)(=O)Nc2ccc3c(c2)CC(=O)N([C@@H](C)CO)C[C@@H](C)[C@H](CN(C)Cc2ccc(-c4ccccc4)cc2)O3)cc1`, the AC40 was 11 µM.

On to `CCCCCn1c(=O)c(C(=O)c2ccccc2)nc2ccccc21`, for which the AC40 is 15.6 µM.

With `C[C@H](CO)N1C[C@H](C)[C@H](CN(C)Cc2ccc(C(=O)Nc3ccccc3N)cc2)Oc2ccc(NC(=O)Nc3ccc(F)cc3)cc2CC1=O`, the AC40 was 1.97 µM.

With `O=C(C#Cc1ccccc1)Nc1cccc(F)c1`, the AC40 is 3.42 µM.

For `Cc1ccc(NS(=O)(=O)c2ccc(-n3cccn3)cc2)cc1F`, the AC40 was 5.32 µM.

Regarding `CCOc1ccc2nc(N3CCCC(C(=O)N4CCN(CC)CC4)C3)sc2c1` (configuration not stated), the AC40 is 6.42 µM.

As for `C[C@H](CO)N1C[C@H](C)[C@H](CN(C)Cc2ccc(C(=O)Nc3ccccc3N)cc2)Oc2ccc(NC(=O)Nc3cccc4ccccc34)cc2C1=O`, the AC40 is 8.83 µM.

Regarding `COc1cccc(OC)c1C(=O)N1CCN(S(=O)(=O)c2ccc(C)cc2)CC1`, the AC40 is 0.233 µM.

`COc1ccc(S(=O)(=O)N(C)C[C@@H]2Oc3ccc(NS(=O)(=O)c4ccc(Cl)cc4)cc3CC(=O)N([C@@H](C)CO)C[C@H]2C)cc1`: the AC40 is 11.8 µM.

As for `CCCNC(=O)Cc1c(O)c2ccccc2[nH]c1=O`, the AC40 is 18.6 µM.

Regarding `O=C(/C=C/Sc1ncn[nH]1)c1ccc(Cl)cc1`, the AC40 is 6.34 µM.

`Cc1ccc(S(=O)(=O)Nc2ccc3c(c2)C(=O)N([C@H](C)CO)C[C@H](C)[C@H](CN(C)Cc2ccc(C(=O)Nc4ccccc4N)cc2)O3)cc1`: the AC40 was 17 µM.

In the case of `O=C(NCc1ccco1)C1CCN(C(=O)c2cc3sccc3n2Cc2ccc(F)cc2)CC1`, the AC40 is 12.1 µM.

For the compound `COc1cc(NC(=O)CN(C)S(=O)(=O)c2ccc3c(c2)CC(C)N3C(C)=O)cc(OC)c1OC` (configuration not stated), the AC40 was 15.9 µM.

On to `CCOC(=O)Cc1csc(NC(=O)CC(C)(C)C)n1`, for which the AC40 is 2.56 µM.

With `O=C(Nc1ccc(S(=O)(=O)N2CCCCC2)cc1)C1CCN(C(=O)c2ccco2)CC1`, the AC40 was 5.15 µM.

For the compound `Cc1ccc(C2CC2c2n[nH]c(=S)n2-c2ccc(C)cc2)cc1` (configuration not stated), the AC40 is 6.33 µM.

Take `COC(=O)[C@@]12CCCCN1[C@H](c1ccc(-c3cccc(Cl)c3)c(OC)c1)[C@@H]1C(=O)N(C)C(=O)[C@@H]12`: the AC40 is 2.72 µM.

Turning to `O=C(CNc1cccc(F)c1)N1CCc2ccccc2C1`, the AC40 was 3.26 µM.

For the compound `O=C(OCc1nc2ccccc2s1)c1cnccn1`, the AC40 was 9.58 µM.

Regarding `CC(C)Nc1ncnc2c1cnn2Cc1ccc(Cl)cc1`, the AC40 is 0.544 µM.

Regarding `Cc1cccn2c(=O)c(C=O)c(N3CCCCCC3)nc12`, the AC40 was 15.1 µM.

`O=C1N2CCCc3cccc(c32)C12Nc1ccccc1S2` (configuration not stated): the AC40 was 14.5 µM.

As for `COc1ccccc1-c1noc(-c2cccs2)n1`, the AC40 is 0.575 µM.

In the case of `COc1ccc(C)cc1C(=O)C1CC(C(=O)O)C(C)(C)C1C` (configuration not stated), the AC40 is 10.6 µM.

In the case of `CCSc1nnc(NC(=O)c2c(-c3ccccc3Cl)noc2C)s1`, the AC40 is 13.9 µM.

On to `C[C@H]1CN([C@@H](C)CO)C(=O)Cc2cc(NC(=O)CCCCCC(=O)Nc3ccccc3N)ccc2O[C@H]1CN(C)Cc1ccc(Cl)c(Cl)c1`, for which the AC40 is 12.6 µM.

As to `CC(=O)C(=Nc1ccccc1Cl)NNc1ccc(Cl)cc1`, the AC40 is 6.58 µM.

As to `Nc1nonc1-c1nc2ccccc2n1Cc1ccc(F)cc1Cl`, the AC40 was 0.892 µM.

Take `CCOC(=O)N1CCN(C(=O)C(c2ccccc2)c2ccccc2)CC1`: the AC40 was 5.75 µM.

Turning to `COc1ccc(S(=O)(=O)N(C)C[C@H]2Oc3c(NC(=O)Nc4ccccc4)cccc3C(=O)N([C@H](C)CO)C[C@H]2C)cc1`, the AC40 was 4.87 µM.

For the compound `O=c1[nH]ncc2c3ccccc3n(Cc3ccccc3)c12`, the AC40 is 5.26 µM.

Regarding `C=CCn1c(=O)[nH]c(=O)c2c(N)c(C(=O)c3ccc(OC)cc3)sc21`, the AC40 is 14.5 µM.

On to `C[C@H](CO)N1C[C@H](C)[C@@H](CN(C)Cc2ccc(Cl)c(Cl)c2)Oc2ccc(NS(C)(=O)=O)cc2CC1=O`, for which the AC40 is 9.83 µM.

Regarding `Cc1nnsc1NC(=O)OCc1ccc(C(F)(F)F)cc1`, the AC40 is 8.84 µM.

Regarding `C[C@H]1CN([C@@H](C)CO)C(=O)c2cccc(NC(=O)Nc3ccc(C(F)(F)F)cc3)c2O[C@H]1CN(C)CC1CCCCC1`, the AC40 was 19.1 µM.

Consider `CC(C)CC#Cc1cnc2c(c1)C(=O)N([C@H](C)CO)C[C@H](C)[C@@H](CN(C)C(=O)Cc1ccccc1)O2`, for which the AC40 was 9.7 µM.

With `C[C@H]1CN([C@@H](C)CO)C(=O)Cc2cc(NC(=O)CCCCCC(=O)Nc3ccccc3N)ccc2O[C@H]1CN(C)CC1CCCCC1`, the AC40 is 2.67 µM.

Consider `Cc1ccc(O)c(NC(=O)c2cc(-c3cccs3)on2)c1`, for which the AC40 is 14.3 µM.

With `COc1ccc(C#Cc2cnc3c(c2)C(=O)N([C@H](C)CO)C[C@H](C)[C@H](CN(C)Cc2ccccc2)O3)cc1OC`, the AC40 was 2.66 µM.

`COc1ccc(N2CCN(C(=O)c3ccc4c(c3)CCN4S(=O)(=O)c3ccccc3)CC2)cc1`: the AC40 was 16.2 µM.

In the case of `COc1ccccc1C(=O)Nc1ccc2c(c1)OCO2`, the AC40 is 4.38 µM.

Take `Cc1cccc(C(=O)Nc2cc(OCc3cccc(F)c3)c(Cl)cc2Cl)c1`: the AC40 was 15.9 µM.

As to `N#Cc1nc(-c2ccco2)oc1N1CCCC1`, the AC40 is 0.199 µM.

On to `Cc1ccc(S(=O)(=O)N(C)C[C@H]2Oc3c(NC(=O)Nc4ccccc4)cccc3C(=O)N([C@@H](C)CO)C[C@H]2C)cc1`, for which the AC40 was 18 µM.

Regarding `O=C(NCc1ccco1)c1cc2sccc2n1Cc1ccccc1`, the AC40 was 0.839 µM.

As to `O=S(=O)(NCc1ccco1)c1ccc(S(=O)(=O)N2CCCCC2)cc1`, the AC40 was 5.03 µM.

For the compound `C[C@H]1CN([C@@H](C)CO)S(=O)(=O)c2ccc(C#Cc3ccc(F)cc3)cc2O[C@@H]1CN(C)S(=O)(=O)c1cn(C)cn1`, the AC40 was 5.96 µM.

With `NC1=NC(=Nc2ccccc2)c2ccccc21`, the AC40 is 16.3 µM.
